Experimental data: US9688653B2, “Ethoxyphenyl thienyl compounds and methods for the treatment of bacterial infections” (Duke University, priority 2013, dated 2017)
Entries after “also recorded” stand apart in the source; their conditions may differ. Read-outs that look alike come from different tables or passages of the source.

How the values were obtained:
E. coli K1 strain UTI89 = assay: Secondary assay 2: T7 phage-mediated lysis assay; format: cell-based, Escherichia coli
Procedure, shortened: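 E. coli K1 UTI89 shaken 1.5 h with compound (100–0.39 μM, quadruplicate, 1% DMSO), initial OD600 taken to flag growth effects without phage. T7 phage, whose entry is blocked by K capsule, then added; OD600 lysis read after 3 h at 37 °C, greater lysis indicating less capsule.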

UPEC = assay: Bacterial growth and viability without phage; format: cell-based, Escherichia coli
Method: Assay Set-up: This secondary assay was conducted in the 96 well plate format. […] Compounds were added to plates in a concentration dependent manner in the range of 100-0.39 μM, followed by addition of 100 μL of bacterial culture. Each concentration was tested in quadruplicate. 1% DMSO (final well concentration) was included. The plates were tape sealed and shaken vigorously for 1.5 hr. An initial OD600 reading at the time of infection was measured to identify compounds that cause growth retardation or bacterial killing in the absence of phage. Next, K1F phage (5 μL) was added to all of the test wells. The plates were resealed and shaken vigorously at 37° C., and measurements of OD600 for phage-mediated lysis were taken after 3 hr.
Assay Description: T7 phage-mediated lysis assay: This assay determined if the mechanism of action of the compound is inhibition of phage infectivity or replication. The T7 phage has a nearly identical genome to K1F, without encoding an endosialidase. Its cycle of replication is similar to that of K1F as well. However, T7 entry into E. coli is inhibited by K capsules. This secondary assay was conducted in the 96 well plate format. […] An initial OD600 reading was measured to identify compounds that cause growth retardation or bacterial killing in the absence of phage. […]

[1] = tested on: Methicillin Resistant Staphylococcus aureus (MRSA) Strain USA300; assay: Growth inhibition of MRSA in buffered TSB medium; format: cell-based
Method: FIG. 17. Inhibition of Methicillin Resistant Staphylococcus aureus (MRSA) Strain USA300 by ML317 (DU011). USA300 was grown shaking in TSB medium buffered at different pH as indicated in the figure with the addition of different concentrations of the chemical probe ML317. Growth was measured by absorbance readings as indicated.

E. coli UTI89 = assay: Human serum sensitization (MTT); format: cell-based, Escherichia coli; conditions: 50 μM compound, p=0.0067 versus control; listed as DU011
Method: Human serum sensitization by capsule inhibitor treatment. Overnight cultures of UTI89 were diluted 1:100 and grown with or without 50 μM compound for approximately 1.5 hrs on a shaker at 37° C. Then 25 μL of anonymous, non-identified, sterile filtered pooled human serum (purchased from Equitech Bio) was added per 100 μL of growth media. This was returned to the shaker for another 3 hrs, after which 20 μL of 5 mg/mL MTT (3-(4,5-Dimethylthiazol-2-yl)-2,5-diphenyltetrazolium bromide) was added. MTT is reduced to purple formazan by bacterial reductase enzymes, thus measuring viable bacteria. This was shaken for another 15 min at 37° C. The sample was spun to remove the growth media, followed by two washes with PBS. The formazan crystals were dissolved in 100 μL of DMSO and measured at OD570.

[2] = Hepatic microsome stability, mouse; format: in vitro ADME; conditions: 37° C.
[3] = Aqueous stability over 48 hours; format: physicochemical; conditions: aqueous PBS and 50:50 aqueous PBS:acetonitrile, room temperature
Method: Aqueous stability for the probe was assessed using two solvent systems (100% aqueous PBS, and 50:50 aqueous PBS: acetonitrile). The probe stability was measured in aqueous PBS (no antioxidants or other protectants, DMSO concentration below 0.1%, room temperature) and the results are reported as circles in the graph in FIG. 4. The probe stability was also measured in 50:50 aqueous PBS and acetonitrile and the results are reported as squares in the graph in FIG. 4. Stability data in each case is depicted as the loss of compound with time over 48 hours with a minimum of six time points and providing the percent compound remaining after 48 hours.

SMILES: CCOc1ccc(-c2cc(NC(=O)c3c(F)cccc3F)c(C(=O)O)s2)cc1 [ML317, 3-(2,6-difluorobenzamido)-5-(4-ethoxyphenyl)thiophene-2-carboxylic acid]
- IC50 (E. coli K1 strain UTI89; Escherichia coli, commercial sample, SID 103147605, read-out: T7 phage assay IC50): < 0.39 µM
- IC50 (E. coli K1 strain UTI89; Escherichia coli, first round of synthetic analogues, n = 2, read-out: T7 phage IC50): < 0.625 µM
- IC50 (E. coli K1 strain UTI89; Escherichia coli, purchased analogue series, n = 2, read-out: T7 phage IC50): < 0.39 µM
- IC50 (E. coli K1 strain UTI89; Escherichia coli, synthesized sample, SID 126497311, read-out: T7 phage assay IC50): < 0.625 µM
- IC50 (E. coli K1 strain UTI89; listed as CID 23602075, read-out: T7 phage IC50): < 0.39 µM
- Effect on in vitro growth and viability of UPEC (UPEC; absence of immune factors): no effect
- Effect on bacterial cell viability (UPEC; highest tested concentration (100 μM)): no effect
- Mode of action on MRSA (culture of bacteria from the experiments) [1]: bactericidal
- Concentration sufficient to produce inhibition of MRSA ([1]; pH 5 and 5.5, TSB medium): 25 to 50 µM
- Growth of MRSA ([1]; pH 7, 100 and 200 μM): inhibited growth
- Sensitivity of UTI89 to pooled human serum (MTT) (E. coli UTI89): further increased serum-mediated killing; also recorded: significantly more sensitive
- Hepatic Microsome Stability, % remaining at 1 hr [2]: 74.3 % remaining
- Aqueous stability [3]: stable
